Results as given in ChEMBL document CHEMBL5584293, “Discovery and evaluation of novel spiroheterocyclic protective agents via a SIRT1 upregulation mechanism in cisplatin-induced premature ovarian failure” (Bioorg Med Chem, 2024).
Activity calls are given as the source filed them. The calls are words filed in the database; no cut-off is given here.

Experiments:
Rattus norvegicus [1] = assay: Protective effect against cisplatin-induced damage in Wistar rat assessed as increase in growing follicle numbers in ovaries at 50 mg/kg, IG qd for 14 days by H and E staining based analysis; format: functional, organism-based; conditions: time 14.0 day
KGN [2] = assay: Inhibition of cisplatin-induced apoptosis in human KGN cells at 1 uM incubated for 36 hrs by Annexin V-FITC/PI staining based analysis (reference value: 53.9 %); format: functional
KGN [3] = assay: Inhibition of cisplatin-induced apoptosis in human KGN cells assessed as decrease in Bax expression at 1 to 10 uM by immunoblot analysis; format: functional, cell-based; conditions: dose 1-10 µM
KGN [4] = assay: Protective effect against cisplatin-induced injury in human KGN cells assessed as increase in SIRT1 level incubated for 36 hrs by Western blot analysis; format: functional, cell-based; conditions: dose <= 10.0 µM
KGN [5] = assay: Protective effect against cisplatin-induced injury in human KGN cells assessed as increase in cell survival incubated for 48 hrs by MTT assay; format: functional, cell-based; conditions: dose 1.25-10 µM
Rattus norvegicus [6] = assay: Protective effect against cisplatin-induced damage in Wistar rat assessed as increase in sinus follicle numbers in ovaries at 50 mg/kg, IG qd for 14 days by H and E staining based analysis; format: functional, organism-based; conditions: time 14.0 day
Rattus norvegicus [7] = assay: Protective effect against cisplatin-induced damage in Wistar rat assessed as increase in primordial follicle numbers in ovaries at 50 mg/kg, IG qd for 14 days by H and E staining based analysis; format: functional, organism-based; conditions: time 14.0 day
KGN [8] = assay: Inhibition of cisplatin-induced apoptosis in human KGN cells at 5 uM incubated for 36 hrs by Annexin V-FITC/PI staining based analysis (reference value: 53.9 %); format: functional
KGN [9] = assay: Protective effect against cisplatin-induced injury in human KGN cells assessed as recovery of cell numbers at 1 to 10 uM by inverted microscopy; format: functional, cell-based; conditions: dose 1-10 µM
KGN [10] = assay: Protective effect against cisplatin-induced injury in human KGN cells assessed as recovery of cell growth at 1 to 10 uM by inverted microscopy; format: functional, cell-based; conditions: dose 1-10 µM
[11] = Toxicity in Wistar rat model of cisplatin-induced damage assessed as body weight loss at 50 mg/kg, IG qd for 7 to 14 days; format: organism-based; conditions: in vivo, po, time 7-14 day
KGN [12] = assay: Cytotoxicity against human KGN cells at 1.25 to 10 uM incubated for 48 hrs by MTT assay; format: toxicity, cell-based; conditions: dose 1.25-10 µM
Rattus norvegicus [13] = assay: Protective effect against cisplatin-induced damage in Wistar rat assessed as decrease in atretic follicle numbers in ovaries at 50 mg/kg, IG qd for 14 days by H and E staining based analysis; format: functional, organism-based; conditions: time 14.0 day
Rattus norvegicus [14] = assay: Protective effect against cisplatin-induced damage in Wistar rat assessed as reduction in vascular congestion in ovaries at 50 mg/kg, IG qd for 14 days by H and E staining based analysis; format: functional, organism-based; conditions: time 14.0 day
KGN [15] = assay: Protective effect against cisplatin-induced injury in human KGN cells assessed as increase in serum E2 level at 1 to 10 uM by ELISA; format: functional, cell-based; conditions: dose 1-10 µM
KGN [16] = assay: Protective effect against cisplatin-induced injury in human KGN cells assessed as recovery of cellular suspension at 1 to 10 uM by inverted microscopy; format: functional, cell-based; conditions: dose 1-10 µM
KGN [17] = assay: Protective effect against cisplatin-induced injury in human KGN cells assessed as recovery of cellular disruption at 1 to 10 uM by inverted microscopy; format: functional, cell-based; conditions: dose 1-10 µM
Rattus norvegicus [18] = assay: Protective effect against cisplatin-induced damage in Wistar rat assessed as decrease in uterine wall thinning at 50 mg/kg, IG qd for 14 days by H and E staining based analysis; format: functional, organism-based; conditions: time 14.0 day
KGN [19] = assay: Protective effect against cisplatin-induced injury in human KGN cells assessed as cell survival at 25 to 50 uM incubated for 48 hrs by MTT assay; format: functional, cell-based; conditions: dose 25-50 µM
Rattus norvegicus [20] = assay: Protective effect against cisplatin-induced damage in Wistar rat assessed as increase in organ indices at 50 mg/kg, IG qd for 14 days; format: functional, organism-based; conditions: time 14.0 day
KGN [21] = assay: Protective effect against cisplatin-induced injury in human KGN cells assessed as increase in p-AKT level incubated for 36 hrs by Western blot analysis; format: functional, cell-based; conditions: dose <= 10.0 µM
KGN [22] = assay: Inhibition of cisplatin-induced apoptosis in human KGN cells at 10 uM incubated for 36 hrs by Annexin V-FITC/PI staining based analysis (reference value: 53.9 %); format: functional
KGN [23] = assay: Inhibition of cisplatin-induced apoptosis in human KGN cells assessed as increase in Bcl-2 expression at 1 to 10 uM by immunoblot analysis; format: functional, cell-based; conditions: dose 1-10 µM
Rattus norvegicus [24] = assay: Protective effect against cisplatin-induced damage in Wistar rat assessed as improvement in ovarian structure at 50 mg/kg, IG qd for 14 days by H and E staining based analysis; format: functional, organism-based; conditions: time 14.0 day
KGN [25] = assay: Protective effect against cisplatin-induced injury in human KGN cells assessed as cell survival rate at 5 uM incubated for 48 hrs by MTT assay (reference value: 65 %); format: functional; conditions: read-out: Survival
Rattus norvegicus [26] = assay: Protective effect against cisplatin-induced damage in Wistar rat assessed as increase in ovarian weight at 50 mg/kg, IG qd for 14 days; format: functional, organism-based; conditions: time 14.0 day
Rattus norvegicus [27] = assay: Protective effect against cisplatin-induced damage in Wistar rat assessed as increase in uterine weight at 50 mg/kg, IG qd for 14 days; format: functional, organism-based; conditions: time 14.0 day
KGN [28] = assay: Protective effect against cisplatin-induced injury in human KGN cells harboring siSIRT1 at 2.5 uM incubated for 36 hrs by Western blot analysis; format: functional, cell-based
Rattus norvegicus [29] = assay: Protective effect against cisplatin-induced damage in Wistar rat assessed as increase in serum E2 level at 50 mg/kg, IG qd for 14 days by ELISA; format: functional, organism-based; conditions: time 14.0 day

COc1ccc(/C=C2\CCC[C@@]3(C2=O)[C@@H](c2ccc(OC)c(OC)c2)C(C)N[C@@]32C(=O)c3cccc4cccc2c34)cc1OC (some centres undefined)
Activity (Rattus norvegicus [1]): Active
inhibition at 1 µM (KGN [2]): 8.6%
inhibition (KGN [3]): Active
Activity (KGN [4]): Dose-Dependent Effect
Activity (KGN [5]): Dose-Dependent Effect
Activity (Rattus norvegicus [6]): Active
Activity (Rattus norvegicus [7]): Active
inhibition at 5 µM (KGN [8]): 21.1%
Activity (KGN [9]): Active
Activity (KGN [10]): Active
Activity [11]: Non-Toxic
Activity (KGN [12]): Non-Toxic
Activity (Rattus norvegicus [13]): Active
Activity (Rattus norvegicus [14]): Active
Activity (KGN [15]): Active
Activity (KGN [16]): Active
Activity (KGN [17]): Active
Activity (Rattus norvegicus [18]): Active
Activity (KGN [19]): Active
Activity (Rattus norvegicus [20]): Active
Activity (KGN [21]): Dose-Dependent Effect
inhibition at 10 µM (KGN [22]): 27.8%
inhibition (KGN [23]): Active
Activity (Rattus norvegicus [24]): Active
viability at 5 µM (KGN [25]): 94%
Activity (Rattus norvegicus [26]): Active
Activity (Rattus norvegicus [27]): Active
Activity (KGN [28]): inactive
Activity (Rattus norvegicus [29]): Active
